Measured values published in patent US20240398783A1, “Compounds and Pharmaceutical Compositions Comprising Inhibitors of Amyloid Peptide Interactions with Glycosaminoglycans, Methods of Treatment and Use Thereof” (Gismo Therapeutics, Inc., priority 2021, published 2024).
Structures can show the parent of a compound that is named as a salt. Where two headings read alike, the source gives them in different places.

Tests used:
[1] = target: Alpha-Synuclein Protofibril binding to heparin (HS-GAG) (Homo sapiens, UniProt P37840); test: Inhibition of alpha-synuclein protofibril binding to immobilized heparin-BSA (ELISA); design: species or system porcine; settings: alpha-synuclein protofibrils, heparin-BSA
Experimental: (§1) Porcine intestinal mucosa heparin conjugated to Bovine Serum Albumin (Heparin-BSA) was prepared as described (Najjam, S. et al. 1997, Cytokine 12, 1013-1022). Heparin is a sulfated HS-GAG and is commonly used as a HS-GAG in biochemical and binding assays (Lindahl, U. and Kjellen, L. (2013) ibid). Heparin-BSA at 0.01 mg/ml in Phosphate Buffered Saline (PBS; pH 7.4) was added to a 96 well polystyrene ELISA plate (NUNC Cat. No. 449824; 100 μl per well) and incubated Over Night (ON) at 4 degrees Celsius. For negative controls, ELISA plates were coated with BSA instead of Heparin-BSA, using the same procedure. Following the incubation, the plate was washed consecutively, by immersion, with de-ionized water and PBS (pH 7.4). The ELISA plate was then blocked with nonfat milk (2%, 200 μl per well) for 2 hours at Room Temperature (RT) with gentle shaking. Following blocking, the plate was washed with de-ionized water then PBS (pH 7.4). GBAPs were dissolved and diluted in PBS (pH 6.5, supplemented with 0.1% BSA) at desired concentrations, added to the ELISA plates containing immobilized Heparin-BSA (100 μl per well) and incubated for 2 hours at RT with gentle shaking. Following incubation, the plate was washed with de-ionized water and three times with PBS (pH 6.5) plus Tween. Bound GBAP was detected by a monoclonal antibody specific for that GBAP, followed by incubation with secondary antibody conjugated to horseradish peroxidase (HRP). Antibody was diluted in PBS (pH 6.5 supplemented with 1% BSA). Following each incubation with antibody, the plate was washed with de-ionized water and three times with PBS (pH 6.5) wash buffer containing 0.1% Tween. The peroxidase substrate chromogen, TMB (Dako Cat. No. S1599) was added (100 μl per well) to the ELISA plate and incubated at room temperature. After 5 minutes ELISA Stop Solution (hydrochloric acid 1N, sulfuric acid 3N) was added (100 μl per well) to stop the peroxidase catalyzed colorimetric reaction. The Optical Density of the samples was measured at 450 nm using an ELISA plate reader (BioTek Synergy H1). Following color development, the % inhibition compared to control (BSA-coated plates) was determined. IC-50s were calculated using GraphPad Prism software.
The assay was performed as described in Example 43, with the following modifications. Following to coating the plates with Heparin-BSA, plates were washed as described. The compounds were dissolved in DMSO at 10 mM final concentration and further diluted prior to assay. DMSO concentration in the screening well was up to […]. Individual compounds were co-incubated with alpha-synuclein on plates containing immobilized heparin. Alpha-synuclein purchased from rPeptide (Cat. No. S1001) was used to prepare protofibrils as described in Ihse et al., 2017. Alpha-synuclein was dissolved in PBS (pH7.4) to a concentration of 140 μM (˜2 mg/ml), and incubated for 7 days at 37° C. with rotary agitation (400 rpm). Resulting fibrils were sonicated for 10 minutes in ultrasonic water bath, quickly frozen and kept in aliquots at −80 degrees Celsius. Protofibrillar alpha-synuclein diluted in PBS (pH 6.5, supplemented with BSA, 0.1%) was added to the ELISA plate (100 μl per well) and incubated for 2 hours at RT with gentle shaking. Following the incubation, the plate was washed with de-ionized water and three times with PBS (pH 6.5) plus Tween. Bound Alpha-synuclein was detected by Anti-Alpha-synuclein Monoclonal Antibody 211 (Santa Cruz Cat. No. sc-12767), followed by secondary anti-IgG antibody conjugated to HRP (R&D System, Cat. No. HAF007). Following to color development with TMB, as described in Example 43, the Optical Density of the samples was measured at 450 nm using an ELISA plate reader. Following color development, the % inhibition compared to control (no compound, DMSO control) for every compound was determined.
An example of inhibition curve is shown in FIG. 1 for Inhibitor Compounds 22 and 24. […]

[2] = target: TDP-43 binding to heparin (HS-GAG) (Homo sapiens, UniProt Q13148); test: Inhibition of TDP-43 binding to immobilized heparin-BSA (ELISA); design: species or system porcine; settings: for IC50: TDP-43, heparin-BSA
Sequence of TDP-43 binding to heparin (HS-GAG) (Q13148 whole entry): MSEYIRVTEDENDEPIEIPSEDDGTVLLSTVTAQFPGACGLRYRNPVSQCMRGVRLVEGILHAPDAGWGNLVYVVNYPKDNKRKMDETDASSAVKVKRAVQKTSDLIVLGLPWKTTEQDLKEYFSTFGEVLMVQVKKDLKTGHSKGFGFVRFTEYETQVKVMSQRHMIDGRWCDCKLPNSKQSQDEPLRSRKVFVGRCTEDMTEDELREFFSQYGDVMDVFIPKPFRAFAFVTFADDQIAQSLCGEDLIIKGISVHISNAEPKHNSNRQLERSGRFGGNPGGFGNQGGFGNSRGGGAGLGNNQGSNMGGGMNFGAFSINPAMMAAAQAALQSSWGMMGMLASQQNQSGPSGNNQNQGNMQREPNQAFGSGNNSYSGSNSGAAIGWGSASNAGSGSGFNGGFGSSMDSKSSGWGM
Experimental: as §1
The assay was performed as described in Example 43, with the following modifications.
Following to coating the plates with Heparin-BSA, plates were washed as described. The compounds were dissolved in DMSO at 10 mM final concentration and further diluted prior to assay. DMSO concentration in the screening well was up to 2%. Individual compounds were co-incubated with TDP-43 on plates containing immobilized heparin. TDP43 from R&D System (Cat. No. AP-190) was quickly frozen and kept in aliquots at −80 degrees Celsius. TDP-43 dissolved in PBS (pH 6.5, supplemented with BSA, 0.1%) was added to the ELISA plate (100 μl per well) and incubated for 2 hours at RT with gentle shaking. Following the incubation, the plate was washed with de-ionized water and three times with PBS (pH 6.5) plus Tween. Bound TDP-43 was detected by Anti-TDP43 Monoclonal Antibody (R&D System Cat. No. MAB7778), followed by secondary anti-IgG antibody conjugated to HRP (R&D System, Cat. No. HAF007). Following to color development with TMB, as described in Example 43, the Optical Density of the samples was measured at 450 nm using an ELISA plate reader. Following color development, the % inhibition compared to control (no compound, DMSO control) for every compound was determined.
As described in Example 43, Heparin in the form of Heparin-BSA conjugate is used as a source of HS-GAG. For each compound IC-50 value in TDP-43—heparin-BSA binding assay is shown in μM (micromolar). In some cases IC-50 was not measured and % inhibition at 30 μM compound concentration is shown instead. […] All assays were done on 96-well plates in duplicates and experiments were repeated at least twice. […]

[3] = read-out: Alpha-Synuclein/Heparin Activity (IC-50)
[4] = read-out: TDP43/Heparin Activity (IC-50)

Structure (SMILES) | IC50 [1, 3] [µM] | IC50 [2, 4] [µM] | other results
C[n+]1ccc(/C=N\Nc2ccnc3ccccc23)cc1 [Compound 9, (Z)-1-methyl-4-((2-(quinolin-4-yl)hydrazono)methyl)pyridin-1-ium iodide] | – | – | inhibition at 30 µM ([1]; 30 μM compound, read-out: Alpha-Synuclein/Heparin Activity (% inhibition class)): < 30%; inhibition at 30 µM ([2]; read-out: TDP43/Heparin Activity (% inhibition class)): < 30%
Clc1ccc2c(N/N=C/c3ccc(-n4ccnc4)nc3)ccnc2c1 [Compound 14, (E)-4-(2-((6-(1H-imidazol-1-yl)pyridin-3-yl)methylene)hydrazineyl)-7-chloroquinoline hydrochloride] | – | – | IC50 ([1]; Alpha-Synuclein/Heparin Activity (IC-50)): 2.02 µM; IC50 ([2]; TDP43/Heparin Activity (IC-50)): 4.32 µM
C/C(=N\Nc1ncnc2cc(Cl)ccc12)c1ccc(-n2cc(C)nc2C)nc1 [Compound 18, (E)-7-chloro-4-(2-(1-(6-(2,4-dimethyl-1H-imidazol-1-yl)pyridin-3-yl)ethylidene)hydrazineyl)quinazoline phosphoric acid salt] | 1.71 | 4.77 | –
Cc1cc(-n2ccnc2)ccc1/C=N/Nc1ccnc2cc(Cl)ccc12 [Compound 1, (E)-4-((E)-(4-(1H-imidazol-1-yl)-2-methylbenzylidene)hydrazono)-7-chloro-1,4-dihydroquinoline] | 3.19 | 2.92 | –
